Experimental data reported in PubChem BioAssay (NCI).
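Interpolation was linear, between the two tested concentrations surrounding the appropriate level; five concentrations were tested over 48 hours in 96-well plates. TGI: total growth inhibition.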

Columns and labels:
Assay in all cases: NCI anticancer screen, dose series, 48 h
SK-MEL-2 melanoma = system: SK-MEL-2 melanoma
LOX IMVI melanoma = system: LOX IMVI melanoma
SF-539 CNS = system: SF-539 CNS
HCT-15 colon = system: HCT-15 colon
HT29 colon = system: HT29 colon
SK-MEL-5 melanoma = system: SK-MEL-5 melanoma
EKVX NSCLC = system: EKVX NSCLC
HL-60(TB) leukemia = system: HL-60(TB) leukemia
UO-31 renal = system: UO-31 renal
U251 CNS = system: U251 CNS
MOLT-4 leukemia = system: MOLT-4 leukemia

Row | Structure (SMILES) | TGI (SK-MEL-2 melanoma) | TGI (LOX IMVI melanoma) | TGI (SF-539 CNS) | TGI (HCT-15 colon) | TGI (HT29 colon) | TGI (SK-MEL-5 melanoma) | TGI (EKVX NSCLC) | TGI (HL-60(TB) leukemia) | TGI (UO-31 renal) | TGI (U251 CNS) | TGI (MOLT-4 leukemia)
1 | O=C(Cc1nc2ccc(C(=O)c3ccccc3)cc2[nH]c1=O)C(=O)Nc1ccc(Br)cc1 | > 100 µM | > 100 µM | > 100 µM | > 100 µM | > 100 µM | > 100 µM | > 100 µM | > 100 µM | > 100 µM | > 100 µM | –
2 | CCOC(=O)c1cc(=C2\CCN(CC(C)CC)C2=S)/c(=C(/O)CC)[nH]1 (configuration not stated) | 44.4 µM | 41.2 µM | 24.9 µM | 25.8 µM | 48 µM | – | 35.3 µM | 27.3 µM | 35.4 µM | 26.5 µM | 24.6 µM
3 | O=c1c2ccccc2[nH]c(=S)n1-c1ccc(N=Nc2cccc3c(O)cccc23)cc1 | > 100 µM | > 100 µM | > 100 µM | > 100 µM | > 100 µM | > 100 µM | > 100 µM | > 100 µM | > 100 µM | > 100 µM | > 100 µM
4 | CC(C)C(Sc1nc(-c2ccccc2)c(-c2ccccc2)[nH]1)C(=O)NNC(=S)Nc1ccccc1 (configuration not stated) | 36.6 µM | 29.3 µM | 35.8 µM | 33.8 µM | 36.8 µM | 25.4 µM | 61.4 µM | 40.1 µM | 35.8 µM | 30 µM | 33 µM
5 | Nc1nc(Cl)cc(NCC2(CO)CC(CCc3ccccc3)C2)n1 (configuration not stated) | > 100 µM | > 100 µM | > 100 µM | > 100 µM | > 100 µM | > 38.1 µM | > 100 µM | > 94.2 µM | > 100 µM | > 100 µM | > 100 µM
6 | C[N+](C)(C)CC(=O)N/N=c1\cc(C(=O)Nc2ccc(N=O)cc2C#N)oc2cc(O)ccc12 | > 100 µM | > 100 µM | > 100 µM | > 100 µM | > 100 µM | > 100 µM | > 100 µM | > 100 µM | > 100 µM | > 100 µM | > 100 µM
7 | CCCCN(CC)c1nc(C)nc2c1c(C)c(C)n2-c1c(C)cc(C)cc1C | 25.7 µM | 30.4 µM | 6.46 µM | 27.6 µM | 22.6 µM | 17.6 µM | 27.5 µM | 19.3 µM | 28.9 µM | 23.9 µM | 30.1 µM
8 | CCCCc1c(O)nc(Nc2nc3ccccc3[nH]2)[nH]c1=O | > 100 µM | > 100 µM | > 100 µM | > 100 µM | > 100 µM | > 100 µM | > 100 µM | > 100 µM | – | > 100 µM | > 100 µM
9 | O=C1CC(c2ccco2)C2(C(=O)NC(=O)NC2=O)C(c2ccco2)C1 (configuration not stated) | > 75 µM | > 75 µM | > 75 µM | > 75 µM | > 75 µM | > 75 µM | > 75 µM | > 75 µM | > 75 µM | > 75 µM | > 75 µM
10 | COc1ccc(/C(=C/n2ccnc2)C(=O)c2ccc(OC)c(OC)c2)cc1 | > 100 µM | > 100 µM | > 100 µM | > 100 µM | – | > 100 µM | > 100 µM | > 100 µM | > 100 µM | > 100 µM | > 100 µM
11 | CC(C)=CCN1CC(C)C(=O)Nc2cc(Cl)ccc21 (configuration not stated) | 31.1 µM | 32.4 µM | 43 µM | 80.6 µM | 38.3 µM | 26.5 µM | 94.8 µM | > 100 µM | > 100 µM | > 100 µM | > 100 µM
12 | COc1cc2oc(-c3ccc(O)cc3)c(OC3OC(C)C(O)C(O)C3O)c(=O)c2c(O)c1OC (configuration not stated) | > 100 µM | > 100 µM | > 100 µM | > 100 µM | > 100 µM | > 100 µM | > 100 µM | > 100 µM | – | > 100 µM | > 100 µM
13 | COC(=O)C(C#N)=C1c2ccccc2Oc2ccccc21 | > 100 µM | > 100 µM | > 100 µM | > 100 µM | > 100 µM | > 100 µM | > 100 µM | 56.4 µM | > 100 µM | – | > 100 µM
14 | CC(=O)NC1C(OCc2ccccc2)OC(CO)C(O)C1OCC(=O)N[C@@H](C)C(=O)N[C@H](CCC(=O)NCCNCCNc1c2ccccc2nc2cccc([N+](=O)[O-])c12)C(N)=O (some centres not stated) | 46.5 µM | 61.9 µM | > 100 µM | > 100 µM | 72.3 µM | 39.5 µM | 91.1 µM | > 100 µM | > 100 µM | > 100 µM | –
15 | CC(C)(C)C(=O)C(CC(=O)c1ccccc1)C(=O)C(C)(C)C | > 100 µM | > 100 µM | > 100 µM | > 100 µM | > 100 µM | > 100 µM | > 100 µM | > 100 µM | > 100 µM | > 100 µM | > 100 µM
16 | Cc1ccc(N=Nc2c3c(c(O)c4ccccc24)CCC(C)(C)O3)cc1 | 36.7 µM | 28.6 µM | > 100 µM | 67.3 µM | 35.7 µM | 15.7 µM | 75.3 µM | 49.7 µM | 73.3 µM | > 100 µM | > 100 µM
17 | O=c1[nH]c2nc3ccccc3c(=O)n2/c1=C/c1ccc(O)cc1 | > 100 µM | > 100 µM | 46.6 µM | > 100 µM | 72 µM | > 100 µM | > 100 µM | > 100 µM | > 100 µM | 83.6 µM | > 100 µM
18 | C=CC(=O)c1ccc2c(c1)OCCOCCOCCOCCOCCO2 | > 79.7 µM | 35.6 µM | 33.2 µM | 39.2 µM | > 56.5 µM | > 100 µM | 57.9 µM | > 100 µM | > 58 µM | > 100 µM | > 100 µM
19 | O=C(/C=C/c1ccccc1)/C=C/c1ccccc1O | > 100 µM | 33.8 µM | 44.3 µM | 32.8 µM | 47.6 µM | 41.6 µM | 39.8 µM | 35.8 µM | 31.8 µM | 32.7 µM | 63.1 µM
20 | O=C(/C(=C(/Br)I)c1ccccc1)c1ccccc1 | – | 32.3 µM | 37.7 µM | 79.3 µM | 36.1 µM | 41.8 µM | 89.1 µM | > 100 µM | 41.3 µM | 53.1 µM | 46.2 µM
